Source: the supplement of paper PMC10307832

Assays:
Assay in all cases: relative viability (nuclei count vs DMSO), 5 days (fraction); higher = more cells survive
Bosutinib + Phenformin = compound: COc1cc(Nc2c(C#N)cnc3cc(OCCCN4CCN(C)CC4)c(OC)cc23)c(Cl)cc1Cl [Bosutinib] + N=C(N)NC(=N)NCCc1ccccc1 [Phenformin] (partner 250 µM)
Summary of the method: (§1)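 Lung cancer cell lines in 1536-well plates were dosed by pin tool the day after seeding, either with one drug alone or with a fixed anchor-drug dose plus five library-drug doses (not always all listed) in √10 steps. After 5 days, cells were fixed and their nuclei stained in one step (final 0.05% Triton X-100, 1% formaldehyde, 1 ug/ml Hoechst), then counted on 4× images. Relative viability is the nuclei count in treated wells divided by that in vehicle wells. Values are medians of duplicate plates.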

Bosutinib + Crizotinib = compound: COc1cc(Nc2c(C#N)cnc3cc(OCCCN4CCN(C)CC4)c(OC)cc23)c(Cl)cc1Cl [Bosutinib] + C[C@@H](Oc1cc(-c2cnn(C3CCNCC3)c2)cnc1N)c1c(Cl)ccc(F)c1Cl [Crizotinib] (partner 1 µM)
Summary of the method: as §1

Bosutinib + Linsitinib = compound: COc1cc(Nc2c(C#N)cnc3cc(OCCCN4CCN(C)CC4)c(OC)cc23)c(Cl)cc1Cl [Bosutinib] + C[C@]1(O)C[C@@H](c2nc(-c3ccc4ccc(-c5ccccc5)nc4c3)c3c(N)nccn32)C1 [Linsitinib] (partner 1 µM)
Summary of the method: as §1

Bosutinib = compound: COc1cc(Nc2c(C#N)cnc3cc(OCCCN4CCN(C)CC4)c(OC)cc23)c(Cl)cc1Cl [Bosutinib]
Summary of the method: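 In 1536-well plates, lung cancer cell lines rested overnight at 37 °C before five library-drug doses (not always all listed), √10 apart, were pinned onto vehicle-anchored plates. Nuclei were counted with MetaXpress from 4× Hoechst images taken after 5 days without medium change. Viability compares treated-well with vehicle-well nuclei as a median over plates, and plates needed control CV below 25% plus at least one doubling to pass.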

Bosutinib + Foretinib = compound: COc1cc(Nc2c(C#N)cnc3cc(OCCCN4CCN(C)CC4)c(OC)cc23)c(Cl)cc1Cl [Bosutinib] + COc1cc2c(Oc3ccc(NC(=O)C4(C(=O)Nc5ccc(F)cc5)CC4)cc3F)ccnc2cc1OCCCN1CCOCC1 [Foretinib] (partner 0.25 µM)
Summary of the method: as §1

Cell Line	relative viability (Bosutinib + Phenformin; first compound 0.01 µM)	relative viability (Bosutinib + Phenformin; first compound 0.03162 µM)	relative viability (Bosutinib + Phenformin; first compound 0.1 µM)	relative viability (Bosutinib + Phenformin; first compound 1 µM)	relative viability (Bosutinib + Crizotinib; first compound 0.01 µM)	relative viability (Bosutinib + Crizotinib; first compound 0.03162 µM)	relative viability (Bosutinib + Crizotinib; first compound 0.1 µM)	relative viability (Bosutinib + Crizotinib; first compound 1 µM)	relative viability (Bosutinib + Linsitinib; first compound 0.01 µM)	relative viability (Bosutinib + Linsitinib; first compound 0.03162 µM)	relative viability (Bosutinib + Linsitinib; first compound 0.1 µM)	relative viability (Bosutinib + Linsitinib; first compound 1 µM)	relative viability (Bosutinib; 0.01 µM)	relative viability (Bosutinib; 0.03162 µM)	relative viability (Bosutinib; 0.1 µM)	relative viability (Bosutinib; 1 µM)	relative viability (Bosutinib + Foretinib; first compound 0.01 µM)	relative viability (Bosutinib + Foretinib; first compound 0.03162 µM)	relative viability (Bosutinib + Foretinib; first compound 0.1 µM)	relative viability (Bosutinib + Foretinib; first compound 1 µM)
HCC-44	0.247	0.278	0.185	0.388	0.809	0.782	0.764	0.755	0.696	0.619	0.674	0.559	0.99	1.02	1.02	1.01				
LCLC-103H	0.338	0.322	0.327	0.409	1.03	1.11	0.992	0.849	1.11	1.12	1.04	1.04	1.01	0.999	0.991	0.996	0.844	0.674	0.804	0.878
ChaGo-K-1	0.536	0.503	0.497	0.515	1.21	1.14	1.09	1.17					0.966	0.976	1.01	0.997	1	0.866	0.981	0.931
NCI-H1703					0.769	0.667	0.493	0.319	0.804	0.932	0.587	0.388	0.869	0.972	0.835	0.468	0.371	0.345	0.334	0.246
NCI-H1793	0.431	0.387	0.364	0.242					0.875	0.742	0.904	0.551	0.916	0.84	0.791	0.588	0.61	0.664	0.58	0.473
NCI-H1650	0.434	0.344	0.339	0.318	0.921	0.989	0.908	0.496					1.01	0.846	0.778	0.783	0.917	1.09	0.862	0.599
NCI-H1395	0.38	0.44	0.461	0.451					1.28	1.17	1.27	0.994	0.932	0.914	1.01	0.817	0.947	0.921	0.996	0.947
NCI-H1792	0.256	0.254	0.327	0.251	0.984	0.978	0.981	1	0.638	0.525	0.586	0.449	0.822	1.08	0.993	0.84				
IA-LM					0.733	0.777	0.839	0.688	0.637	0.744	0.754	0.745	0.998	1.08	0.967	1.01	1.1	1.18	1.14	0.982
